According to the supplement of paper PMC11061612:

Legend:
Capivasertib = compound: C1CN(CCC1(C(=O)N[C@@H](CCO)C2=CC=C(C=C2)Cl)N)C3=NC=NC4=C3C=CN4 [Capivasertib]; settings: max 10 µM
How it was run: (§1)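 After 24 hours at 37°C and 5% CO2 in 1536-well plates holding 7.5 μl of DMEM/F12 or RPMI with 10% FBS, cancer cell lines were dosed for 72 hours, with final DMSO typically 0.2%. Viability came from CellTiter-Glo 2.0 luminescence, scaled between the means of blank wells and DMSO wells. A non-linear mixed effects model fitted a two-parameter logistic curve to each dose response to give the single-agent IC50.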

AZD1775 = compound: C=CCn1c(=O)c2cnc(Nc3ccc(N4CCN(C)CC4)cc3)nc2n1-c1cccc(C(C)(C)O)n1 [AZD1775]; settings: max 3 µM
How it was run: as §1

Trametinib = compound: CC(=O)Nc1cccc(-n2c(=O)n(C3CC3)c(=O)c3c(Nc4ccc(I)cc4F)n(C)c(=O)c(C)c32)c1 [Trametinib]; settings: max 1 µM
How it was run: as §1

Palbociclib = compound: CC(=O)c1c(C)c2cnc(Nc3ccc(N4CCNCC4)cn3)nc2n(C2CCCC2)c1=O [Palbociclib]; settings: max 10 µM
How it was run: as §1

AZD1390 = compound: CC(C)n1c(=O)n(C)c2cnc3cc(F)c(-c4ccc(OCCCN5CCCCC5)nc4)cc3c21 [AZD1390]; settings: max 0.3 µM
How it was run: as §1

Venetoclax = compound: CC1(C)CCC(CN2CCN(c3ccc(C(=O)NS(=O)(=O)c4ccc(NCC5CCOCC5)c([N+](=O)[O-])c4)c(Oc4cnc5[nH]ccc5c4)c3)CC2)=C(c2ccc(Cl)cc2)C1 [Venetoclax]; settings: max 1 µM
How it was run: as §1

Dasatinib = compound: CC1=C(C(=CC=C1)Cl)NC(=O)C2=CN=C(S2)NC3=CC(=NC(=N3)C)N4CCN(CC4)CCO [Dasatinib]; settings: max 2 µM
How it was run: as §1

SG3199 = compound: CC1=CN2[C@@H](C1)C=NC3=CC(=C(C=C3C2=O)OC)OCCCCCOC4=C(C=C5C(=C4)N=C[C@@H]6CC(=CN6C5=O)C)OC [SG3199]; settings: max 0.001 µM
How it was run: as §1

AZD2811 = compound: CCN(CCO)CCCOc1ccc2c(Nc3cc(CC(=O)Nc4cccc(F)c4)[nH]n3)ncnc2c1 [AZD2811]; settings: max 1 µM
How it was run: as §1

SN-38 = compound: CCc1c2c(nc3ccc(O)cc13)-c1cc3c(c(=O)n1C2)COC(=O)[C@]3(O)CC [SN-38]; settings: max 0.3 µM
How it was run: as §1

AZD0156 = compound: CN(C)CCCOc1ccc(-c2ccc3ncc4c(c3c2)n(C2CCOCC2)c(=O)n4C)cn1 [AZD0156]; settings: max 3 µM
How it was run: as §1

AZD4320 = compound: CN(CC[C@H](CSC1=CC=CC=C1)NC2=C(C=C(C=C2)S(=O)(=O)NC(=O)C3=CC=C(C=C3)N4CCC(CC4)[C@H](C5=CC=CC=C5C6=CC=C(C=C6)Cl)O)S(=O)(=O)C(F)(F)F)CCO [AZD4320]; settings: max 1 µM
How it was run: as §1

Alisertib = compound: COc1cc(Nc2ncc3c(n2)-c2ccc(Cl)cc2C(c2c(F)cccc2OC)=NC3)ccc1C(=O)O [Alisertib]; settings: max 10 µM
How it was run: as §1

Gefitinib = compound: COc1cc2ncnc(Nc3ccc(F)c(Cl)c3)c2cc1OCCCN1CCOCC1 [Gefitinib]; settings: max 10 µM
How it was run: as §1

Prexasertib = compound: COc1cccc(OCCCN)c1-c1cc(Nc2cnc(C#N)cn2)n[nH]1 [Prexasertib]; settings: max 1 µM
How it was run: as §1

Doxorubicin = compound: COc1cccc2c1C(=O)c1c(O)c3c(c(O)c1C2=O)C[C@@](O)(C(=O)CO)C[C@@H]3O[C@H]1C[C@H](N)[C@H](O)[C@H](C)O1 [Doxorubicin]; settings: max 1 µM
How it was run: as §1

AZD5153 = compound: COc1nnc2ccc(N3CCC(c4ccc(OCCN5CCN(C)C(=O)[C@H]5C)cc4)CC3)nn12 [AZD5153]; settings: max 1 µM
How it was run: as §1

Lapatinib = compound: CS(=O)(=O)CCNCc1ccc(-c2ccc3ncnc(Nc4ccc(OCc5cccc(F)c5)c(Cl)c4)c3c2)o1 [Lapatinib]; settings: max 10 µM
How it was run: as §1

AZD8186 = compound: C[C@@H](Nc1cc(F)cc(F)c1)c1cc(C(=O)N(C)C)cc2c(=O)cc(N3CCOCC3)oc12 [AZD8186]; settings: max 3 µM
How it was run: as §1

Crizotinib = compound: C[C@@H](Oc1cc(-c2cnn(C3CCNCC3)c2)cnc1N)c1c(Cl)ccc(F)c1Cl [Crizotinib]; settings: max 10 µM
How it was run: as §1

Savolitinib = compound: C[C@@H](c1ccc2nccn2c1)n1nnc2ncc(-c3cnn(C)c3)nc21 [Savolitinib]; settings: max 1 µM
How it was run: as §1

AZD6738 = compound: C[C@@H]1COCCN1C2=NC(=NC(=C2)C3(CC3)[S@](=N)(=O)C)C4=C5C=CNC5=NC=C4 [AZD6738]; settings: max 10 µM
How it was run: as §1

AZD5991 = compound: Cc1c2c(nn1C)CSCc1cc(n(C)n1)CSc1cc(c3ccccc3c1)OCCCc1c(C(=O)O)n(C)c3c-2c(Cl)ccc13 [AZD5991]; settings: max 1 µM
How it was run: as §1

AZD7648 = compound: Cc1cc2ncnn2cc1Nc1ncc2c(n1)n(C1CCOCC1)c(=O)n2C [AZD7648]; settings: max 10 µM
How it was run: as §1

Taselisib = compound: Cc1nc(-c2cn3c(n2)-c2ccc(-c4cnn(C(C)(C)C(N)=O)c4)cc2OCC3)n(C(C)C)n1 [Taselisib]; settings: max 10 µM
How it was run: as §1

Selumetinib = compound: Cn1cnc2c(F)c(Nc3ccc(Br)cc3Cl)c(C(=O)NOCCO)cc21 [Selumetinib]; settings: max 10 µM
How it was run: as §1

Olaparib = compound: O=C(c1cc(Cc2n[nH]c(=O)c3ccccc23)ccc1F)N1CCN(C(=O)C2CC2)CC1 [Olaparib]; settings: max 10 µM
How it was run: as §1

Row | Cell Line | IC50, cell viability 72 h (Capivasertib) [µM] | IC50, cell viability 72 h (AZD1775) [nM] | IC50, cell viability 72 h (Trametinib) [nM] | IC50, cell viability 72 h (Palbociclib) [µM] | IC50, cell viability 72 h (AZD1390) [nM] | IC50, cell viability 72 h (Venetoclax) [nM] | IC50, cell viability 72 h (Dasatinib) [nM] | IC50, cell viability 72 h (SG3199) [nM] | IC50, cell viability 72 h (AZD2811) [nM] | IC50, cell viability 72 h (SN-38) [nM] | IC50, cell viability 72 h (AZD0156) [nM] | IC50, cell viability 72 h (AZD4320) [nM] | IC50, cell viability 72 h (Alisertib) [µM] | IC50, cell viability 72 h (Gefitinib) [µM] | IC50, cell viability 72 h (Prexasertib) [nM] | IC50, cell viability 72 h (Doxorubicin) [nM] | IC50, cell viability 72 h (AZD5153) [nM] | IC50, cell viability 72 h (Lapatinib) [µM] | IC50, cell viability 72 h (AZD8186) [nM] | IC50, cell viability 72 h (Crizotinib) [µM] | IC50, cell viability 72 h (Savolitinib) [nM] | IC50, cell viability 72 h (AZD6738) [µM] | IC50, cell viability 72 h (AZD5991) [nM] | IC50, cell viability 72 h (AZD7648) [µM] | IC50, cell viability 72 h (Taselisib) [µM] | IC50, cell viability 72 h (Selumetinib) [µM] | IC50, cell viability 72 h (Olaparib) [µM]
1 | C2BBe1 (Colorectal Carcinoma) | > 10 | 2700 | 818 | > 10 | > 300 | > 1000 | > 2000 | > 1 | > 1000 | > 300 | > 3000 | > 1000 | > 10 | > 10 | > 1000 | > 1000 | > 1000 | > 10 | > 3000 | > 10 | > 1000 | > 10 | > 1000 | > 10 | 2.99 | > 10 | > 10
2 | DK-MG (Glioblastoma) | > 10 | 2150 | 375 | > 10 | > 300 | > 1000 | > 2000 | > 1 | > 1000 | > 300 | > 3000 | > 1000 | > 10 | > 10 | > 1000 | > 1000 | 803 | > 10 | 2850 | 4.99 | > 1000 | > 10 | > 1000 | > 10 | > 10 | > 10 | > 10
3 | Daudi (Burkitt's Lymphoma) | > 10 | 1020 | > 1000 | > 10 | > 300 | > 1000 | 627 | > 1 | > 1000 | 8.52 | > 3000 | > 1000 | 0.884 | > 10 | 29.2 | 173 | 243 | > 10 | > 3000 | 5.56 | > 1000 | 3.88 | > 1000 | > 10 | 8.26 | > 10 | > 10
